Key:
[1] = tested on: Neth09H1N1 virus infection of MDCK cells; assay type: cell-based, Influenza virus A/Netherlands/602/2009 (Neth09H1N1)
[2] = molecular target: Recombinant soluble N9 protein (N9 Spain) neuraminidase tetramer (Influenza A virus, UniProt K9MBB0); assay type: biochemical, Influenza A virus A/Anascrecca/Spain/1460/2008(H7N9)
[3] = tested on: HA on virus particle (Neth09H1N1); assay type: binding, Influenza virus A/Netherlands/602/2009 (Neth09H1N1)
[4] = molecular target: NA of the whole Neth09H1N1 virus (Influenza A virus, UniProt C3PSV3); assay type: biochemical, Influenza virus A/Netherlands/602/2009 (Neth09H1N1); details: for IC50: read-out: inhibition of NA of the whole virus in enzymatic MUNANA assay (IC50 μM)
[5] = tested on: recombinant soluble tetrameric N1 and N9 proteins (neuraminidase); assay type: biochemical; details: for IC50: read-out: inhibition of recombinant NA tetramers in enzymatic MUNANA assay (IC50 μM)
[6] = tested on: NA of Neth09H1N1 virus; assay type: biochemical, Influenza virus A/Netherlands/602/2009 (Neth09H1N1)
[7] = tested on: HA on virus particle (Neth09H1N1); details: cited from earlier work

SMILES | CPE assay [1] [mM] | CPE reduction assay on MDCK cells, lowest concentration that inhibits CPE formation [1] [µM] | inhibition of virus-receptor binding (HA inhibition) by BLI [3] | IC50 [4] [µM] | IC50 [5] [µM] | also measured
C#CCCCC[C@H](CC)O[C@@H]1OC(C(=O)O)=C[C@H](O)[C@H]1NC(C)=O [Compound 12] | >5 | >5 | significant HA binding | 2.33 ± 0.005 | 6.4 ± 1 | reduction of potency relative to parent OCM [2]: 6 fold; potency difference to OC (OC more potent) [4]: ca. 600 fold; potency difference to OC (OC more potent) [5]: ca. 600 fold
C#CCCCC[C@H](CC)O[C@H]1OC(C(=O)O)=C[C@H](O)[C@H]1NC(C)=O [Compound 14] | – | – | – | – | – | IC50, NA (N9 Spain) MUNANA enzyme inhibition [2]: no inhibition
C#CCCCC[C@@H](CC)O[C@H]1OC(C(=O)O)=C[C@H](O)[C@H]1NC(C)=O [Compound 15] | – | – | – | – | – | IC50, NA (N9 Spain) MUNANA enzyme inhibition [2]: no inhibition
CC[C@@H](CCCCc1cn([C@H]2[C@H](OC(C)=O)[C@@H](OC(C)=O)[C@H](n3cc(CCCC[C@H](CC)O[C@@H]4OC(C(=O)O)=C[C@H](O)[C@H]4NC(C)=O)nn3)O[C@@H]2COC(C)=O)nn1)O[C@@H]1OC(C(=O)O)=C[C@H](O)[C@H]1NC(C)=O [Compound 17a] | >5 | >5 | – | 9.4 ± 0.4 | 24.4 ± 17.5 | –
CC[C@@H](CCCCc1cn([C@H]2[C@H](O)[C@@H](O)[C@H](n3cc(-c4ccc(-c5cn([C@H]6[C@H](O)[C@@H](O)[C@H](n7cc(-c8ccc(-c9cn([C@@H]%10O[C@H](CO)[C@@H](n%11cc(CCCC[C@H](CC)O[C@@H]%12OC(C(=O)O)=C[C@H](O)[C@H]%12NC(C)=O)nn%11)[C@H](O)[C@H]%10O)nn9)cc8)nn7)O[C@@H]6CO)nn5)cc4)nn3)O[C@@H]2CO)nn1)O[C@@H]1OC(C(=O)O)=C[C@H](O)[C@H]1NC(C)=O [Compound 21] | 0.45 ± 0.4 | 0.45 ± 0.4 | largest effect | 0.11 ± 0.004 | 1.3 ± 0.4 | NA inhibition judged from virus re-binding to regenerated sensor [6]: able to inhibit the NA; amount needed to prevent cell killing (CPE) relative to IC50 in MUNANA assay with the whole virus [1]: 4 fold; better CPE inhibitor than OC [1]: ca. 2 fold; inhibition of virus binding to the BLI sensor, compound alone [3]: sufficient to prevent apparent viral binding to the sensor; inhibition of virus-receptor binding by BLI in the presence of OC (Figure 5a) [3]: inhibited virus-receptor binding; multivalency enhancement in comparison with monovalent 12 [4]: 20–30 fold; potency difference to OC (OC more potent) [4]: ca. 25 fold; potency difference to OC (OC more potent) [5]: ca. 100 fold
CC[C@@H](CCCCc1cn([C@H]2[C@H](O)[C@@H](O)[C@H](n3cc(-c4ccc(-c5cn([C@@H]6O[C@H](CO)[C@@H](n7cc(-c8cc(O)c(-c9cn([C@@H]%10O[C@H](CO)[C@@H](n%11cc(-c%12ccc(-c%13cn([C@@H]%14O[C@H](CO)[C@@H](n%15cc(CCCC[C@H](CC)O[C@@H]%16OC(C(=O)O)=C[C@H](O)[C@H]%16NC(C)=O)nn%15)[C@H](O)[C@H]%14O)nn%13)cc%12)nn%11)[C@H](O)[C@H]%10O)nn9)cc8O)nn7)[C@H](O)[C@H]6O)nn5)cc4)nn3)O[C@@H]2CO)nn1)O[C@@H]1OC(C(=O)O)=C[C@H](N)[C@H]1NC(C)=O [Compound 24] | 0.84 ± 0.4 | 0.84 ± 0.4 | did not have increased inhibitory activity compared to monovalent 12 | 4.7 ± 0.9 | 10.6 ± 1.7 | amount needed to prevent cell killing (CPE) relative to IC50 in MUNANA assay with the whole virus [1]: 0.2 fold
CCC(CC)O[C@@H]1C=C(C(=O)O)C[C@H](N)[C@H]1NC(C)=O [OC, oseltamivir carboxylate, reference compound] | 1.0 ± 0.4 | 1.0 ± 0.4 | – | 0.004 ± 0.001 | – | interference with HA-receptor binding [7]: does not interfere with HA-receptor binding
CCC(CC)O[C@@H]1OC(C(=O)O)=C[C@H](O)[C@H]1NC(C)=O [OCM, reference compound] | – | – | can be observed | – | – | –

From PMC9150099, “Preventing Influenza A Virus Infection by Mixed Inhibition of Neuraminidase and Hemagglutinin by Divalent Inhibitors” (Journal of Medicinal Chemistry, 2022)
